{"source": "patent US9238631B2", "about": "“Radiolabeled amino acids for diagnostic imaging” (PIRAMAL IMAGING SA, priority 2011, dated 2016)", "test_system": "NCI-H460 (human NSCLC) cells", "assay": "Cell uptake studies: 30 min uptake in H460 cells", "format": "cell-based", "settings": "0.25 MBq tracer, PBS 0.1% BSA", "experimental": "For determination of the biological activity, the F18 labeled derivatives were used as tracers in cell uptake experiments. NCI-H460 (human NSCLC) cells, grown adherently in 48 well plates were used for these uptake-experiments. Approximately 100.000 cells were incubated with 0.25 MBq of the tracers for 30 min in PBS-buffer containing 0.1% BSA. After this time, the cell-bound radioactivity was determined using a γ-counter.", "data": [{"smiles": "N[C@@H](CCC(Cc1ccc(OCC[18F])cc1)C(=O)O)C(=O)O", "note": "(stereo partly drawn) [[^18F]-12] [(2S)-2-Amino-5-[4-(2-[^18F]fluoroethoxy)benzyl]hexanedioic acid]", "values": [{"measurement": "30 min uptake into H460 cells [%/100.000 cells]", "value": "10.5 ± 0.3", "unit": "%/100.000 cells"}]}]}
